Data on 20 compounds can be found in PubChem BioAssay AID328 (DTP/NCI, 2004).

The subject of the assay is BDF1 mice, P388 leukemia ip, median survival T/C. Nature of the assay: NCI In Vivo Anticancer Drug Screen. Data for tumor model P388 Leukemia (intraperitoneal) in B6D2F1 (BDF1) mice. The following applies: endpoint: median survival time, higher = longer survival. The method in brief: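 Antitumour effect was judged in vivo: survival in drug-treated mice, normalised to that of vehicle-dosed controls, gives the reported T/C.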

Where [1] appears, read: dose: 12.5 mg/kg/injection, schedule: Q01DX009 (ip), vehicle: saline with Tween-80.
The mark [2] stands for this setting: dose: 25.0 mg/kg/injection, schedule: Q01DX009 (ip), vehicle: saline with Tween-80.
[3] abbreviates: dose: 50.0 mg/kg/injection, schedule: Q01DX009 (ip), vehicle: saline with Tween-80.
Where [4] appears, read: dose: 100.0 mg/kg/injection, schedule: Q01DX009 (ip), vehicle: saline with Tween-80.
Setting [5] is: dose: 100.0 mg/kg/injection, schedule: Q04DX003 (ip), vehicle: saline with Tween-80.
Setting [6] is: dose: 200.0 mg/kg/injection, schedule: Q01DX009 (ip), vehicle: saline with Tween-80.
[7] abbreviates: dose: 200.0 mg/kg/injection, schedule: Q04DX003 (ip), vehicle: saline with Tween-80.
[8] abbreviates: dose: 400.0 mg/kg/injection, schedule: Q01DX009 (ip), vehicle: saline with Tween-80.
Where [9] appears, read: dose: 400.0 mg/kg/injection, schedule: Q04DX003 (ip), vehicle: saline with Tween-80.

Values joined by “and” are separate entries in the source; they are usually repeats but may differ in a detail not shown here. Equal values may be shown once. Inconclusive results and toxic doses are left out.

`CCCCN(CCCC)CC(O)c1cc(-c2ccc(Cl)c(Cl)c2)cc2cc(Cl)ccc12` (centres undefined): the T/C under setting [1] is 99 % of control; the T/C under setting [2] is 99 % of control; the T/C under setting [3] is 92 % of control and 97 % of control.

Take `CCOC(=O)CSc1nc2nc(Cl)c(Cl)nc2[nH]1`: the T/C is 112 % of control (dose: 3.12 mg/kg/injection, schedule: Q04DX003 (ip), vehicle: saline with Tween-80); 102 % of control (dose: 6.25 mg/kg/injection, schedule: Q04DX003 (ip), vehicle: saline with Tween-80); 100 % of control (dose: 12.5 mg/kg/injection, schedule: Q04DX003 (ip), vehicle: saline with Tween-80); 88 % of control under setting [2]; 102 % of control (dose: 25.0 mg/kg/injection, schedule: Q04DX003 (ip), vehicle: saline with Tween-80); 106 % of control under setting [3]. For the same compound, the T/C by setting is: (dose: 50.0 mg/kg/injection, schedule: Q04DX003 (ip), vehicle: saline with Tween-80) 95 % of control and 102 % of control; under setting [4], 92 % of control; under setting [5], 103 % of control; under setting [6], 100 % of control; under setting [7], 97 % of control; under setting [8], 106 % of control. Also, the T/C under setting [9] was 108 % of control.

Take `CCCC=C=CCN(C)C`: the T/C runs as follows: (dose: 12.5 mg/kg/injection, schedule: Q04DX002 (ip), vehicle: saline) 96 % of control; (dose: 25.0 mg/kg/injection, schedule: Q04DX002 (ip), vehicle: saline) 100 % of control; (dose: 50.0 mg/kg/injection, schedule: Q04DX002 (ip), vehicle: saline) 112 % of control.

For the compound `C=C1C(C2(C)C(OC(C)=O)CC(=O)OC(C)(COC(C)=O)C2CC(=O)OC)C(OC=O)C(OC(=O)C(O)C(C)CC)C2(C)C(c3ccoc3)CC(=O)C12O` (centres undefined), the T/C is, setting by setting: (dose: 3.75 mg/kg/injection, schedule: Q01DX009 (ip), vehicle: Klucel (hydroxypropylcellulose) (HPC)) 94 % of control; (dose: 7.5 mg/kg/injection, schedule: Q01DX009 (ip), vehicle: Klucel (hydroxypropylcellulose) (HPC)) 93 % of control.

`COC1C(O)=C2C(=O)OC(C)(O)/C=C/C=C\C=C/C=C/C(c3ccccc3)NC(=O)/C=C/C=C/C=C/C=C/C2(C)C1O` (centres undefined): the T/C was 88 % of control (dose: 0.78 mg/kg/injection, schedule: Q01DX009 (ip), vehicle: Klucel (hydroxypropylcellulose) (HPC)); 107 % of control (dose: 1.56 mg/kg/injection, schedule: Q01DX009 (ip), vehicle: Klucel (hydroxypropylcellulose) (HPC)); 107 % of control (dose: 3.12 mg/kg/injection, schedule: Q01DX009 (ip), vehicle: Klucel (hydroxypropylcellulose) (HPC)).

For `Cc1cccc(N)n1` (tested in a mixture with another compound), the T/C is, setting by setting: (dose: 12.5 mg/kg/injection, schedule: Q01DX009 (ip), vehicle: saline) 105 % of control; (dose: 25.0 mg/kg/injection, schedule: Q01DX009 (ip), vehicle: saline) 94 % of control; (dose: 50.0 mg/kg/injection, schedule: Q01DX009 (ip), vehicle: saline) 89 % of control.

For `CCOC(CN1CCN(CC(C)C(=O)c2ccccc2)CC1)c1ccccc1` (centres undefined), the T/C under setting [3] is 109 % of control and the T/C under setting [4] is 118 % of control.

Take `COc1cc(/C=N/NC(=O)COCC(=O)N/N=C/c2ccc(O)cc2OC)ccc1O`: the T/C (dose: 200.0 mg/kg/injection, schedule: Q01DX005 (ip), vehicle: saline with Tween-80) is 96 % of control.

For `COC1C(C)OC(OC2CC(C)(O)Cc3cc4c(c(O)c32)C(=O)c2c(O)cc3c(c2C4=O)OC2OC3(C)C(O)C(N(C)C)C2O)C(OC)C1(C)OC` (centres undefined), the T/C by setting is: (dose: 1.25 mg/kg/injection, schedule: Q01DX009 (ip), vehicle: other) 122 % of control; (dose: 4.32 mg/kg/injection, schedule: Q04DX003 (ip), vehicle: water) 169 % of control; (dose: 5.0 mg/kg/injection, schedule: Q01DX009 (ip), vehicle: other) 154 % of control; (dose: 7.2 mg/kg/injection, schedule: Q04DX003 (ip), vehicle: water) 183 % of control; (dose: 10.0 mg/kg/injection, schedule: Q01DX009 (ip), vehicle: other) 151 % of control; (dose: 20.0 mg/kg/injection, schedule: Q04DX003 (ip), vehicle: water) 111 % of control.

In the case of `O=C(c1ccccc1)N1CC=Cc2ccccc21`, the T/C reads like this: under setting [3], 105 % of control; under setting [4], 100 % of control; under setting [6], 105 % of control.

With `CCOC(=O)c1cc2sccc2[nH]1`, the T/C reads like this: under setting [4], 103 % of control; under setting [5], 104 % of control; under setting [6], 100 % of control; under setting [7], 109 % of control; under setting [8], 115 % of control; under setting [9], 113 % of control.

In the case of `COc1ccc(-c2cc(-c3ccc(Cl)cc3)no2)cc1`, the T/C (dose: 100.0 mg/kg/injection, schedule: Q01DX009 (ip), vehicle: Klucel (hydroxypropylcellulose) (HPC)) was 90 % of control; the T/C (dose: 100.0 mg/kg/injection, schedule: Q04DX003 (ip), vehicle: Klucel (hydroxypropylcellulose) (HPC)) is 100 % of control; the T/C (dose: 200.0 mg/kg/injection, schedule: Q01DX009 (ip), vehicle: Klucel (hydroxypropylcellulose) (HPC)) is 90 % of control; the T/C (dose: 200.0 mg/kg/injection, schedule: Q04DX003 (ip), vehicle: Klucel (hydroxypropylcellulose) (HPC)) is 100 % of control; the T/C (dose: 400.0 mg/kg/injection, schedule: Q01DX009 (ip), vehicle: Klucel (hydroxypropylcellulose) (HPC)) is 100 % of control; the T/C (dose: 400.0 mg/kg/injection, schedule: Q04DX003 (ip), vehicle: Klucel (hydroxypropylcellulose) (HPC)) was 100 % of control.

In the case of `OCCNCCNCC[OH2+].OCCNCCNCC[OH2+].[Cu+2].[O-][Cl+3]([O-])([O-])[O-]`, the T/C by setting is: (dose: 12.5 mg/kg/injection, schedule: Q01DX009 (ip), vehicle: other) 99 % of control; (dose: 25.0 mg/kg/injection, schedule: Q01DX009 (ip), vehicle: other) 115 % of control; (dose: 50.0 mg/kg/injection, schedule: Q01DX009 (ip), vehicle: other) 109 % of control.

As to `CCCc1c(N)c2ccccc2c2ccccc12`, the T/C is 86 % of control (dose: 100.0 mg/kg/injection, schedule: Q04DX002 (ip), vehicle: saline with Tween-80); 96 % of control (dose: 200.0 mg/kg/injection, schedule: Q04DX002 (ip), vehicle: saline with Tween-80); 102 % of control (dose: 400.0 mg/kg/injection, schedule: Q04DX002 (ip), vehicle: saline with Tween-80).

With `[Cl][Rh][Cl].c1cn[nH]c1.c1cn[nH]c1.c1cn[nH]c1.c1cn[nH]c1`, the T/C runs as follows: (dose: 12.5 mg/kg/injection, schedule: Q01DX009 (ip), vehicle: Klucel (hydroxypropylcellulose) (HPC)) 114 % of control; (dose: 25.0 mg/kg/injection, schedule: Q01DX009 (ip), vehicle: Klucel (hydroxypropylcellulose) (HPC)) 94 % of control.

As for `CC(C)CC(NC(=O)C(C)N)C(=O)NCC(=O)O` (centres undefined), the T/C by setting is: (dose: 50.0 mg/kg/injection, schedule: Q01DX005 (ip), vehicle: saline) 100 % of control; (dose: 100.0 mg/kg/injection, schedule: Q01DX005 (ip), vehicle: saline) 91 % of control; (dose: 200.0 mg/kg/injection, schedule: Q01DX005 (ip), vehicle: saline) 103 % of control.

Take `CN(C)/N=C1\C(=O)N(CCCl)c2cc(Cl)c(Cl)cc21`: the T/C under setting [3] was 97 % of control, the T/C under setting [4] is 99 % of control and the T/C under setting [6] is 90 % of control.

In the case of `O=C1c2cccc(O)c2C(=O)c2c(OC3OC(CO)C(OC4OC(CO)C(O)C(O)C4O)C(O)C3O)cccc21` (centres undefined), the T/C is 103 % of control (dose: 100.0 mg/kg/injection, schedule: Q04DX003 (ip), vehicle: saline); 119 % of control (dose: 200.0 mg/kg/injection, schedule: Q04DX003 (ip), vehicle: saline); 112 % of control (dose: 400.0 mg/kg/injection, schedule: Q04DX003 (ip), vehicle: saline).

Regarding `COc1ccc2c3c1OC1CC(O)C=CC31CCN(C)C2` (centres undefined), the T/C (dose: 5.0 mg/kg/injection, schedule: Q01DX010 (ip), vehicle: carboxymethylcellulose (CMC)) is 100 % of control.

In the case of `CCOC1=Cc2c(oc3c(C(C)(C)C)cc(OCC)cc23)OC(C(C)(C)C)=C1`, the T/C is 112 % of control (dose: 3.12 mg/kg/injection, schedule: Q01DX009 (ip), vehicle: saline with Tween-80); 122 % of control (dose: 6.25 mg/kg/injection, schedule: Q01DX009 (ip), vehicle: saline with Tween-80); 122 % of control under setting [1]; 100 % of control and 121 % of control under setting [2]; 101 % of control under setting [3].
